Data on 22 molecules can be found in ChEMBL document CHEMBL1201862, “PubChem BioAssay data set” (2004).

The target of experiment [1] is T1, Estrogen receptor beta (Homo sapiens, UniProt Q92731). Put plainly: blockers of SRC-3 recruitment to ERβ – biochemical, ELISA, streptavidin-HRP readout, orthogonal assay, confirmation (AID 1060).
In experiment [2] the target is T1, Estrogen receptor beta.
In another experiment the target is T2, Bcl-2-like protein 10 (Homo sapiens, UniProt Q9HD36).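 Further: fluorescence polarization from a fluorescein-labelled TR3 peptide binding purified Bcl-B.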
T2 sequence (Q9HD36 whole entry): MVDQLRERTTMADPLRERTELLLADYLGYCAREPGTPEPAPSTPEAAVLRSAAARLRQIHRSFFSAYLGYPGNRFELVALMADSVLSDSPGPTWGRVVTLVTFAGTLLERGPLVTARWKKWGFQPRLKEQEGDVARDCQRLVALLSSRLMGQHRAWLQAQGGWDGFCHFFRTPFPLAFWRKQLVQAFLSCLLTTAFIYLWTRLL
Put plainly: Bcl-B/TR3 peptide binding disruption – biochemical, fluorescence polarization, FITC-TR3 peptide, selectivity assay for Bfl-1 inhibitor project, primary screen (AID 748). (In fluorescence polarisation assays a small probe gives low polarisation when free and higher when bound to something large.)

Experiment [3] is described as follows: A cytotoxicity screen of small molecule inhibitors of the PhoP region in Salmonella typhi identified in the primary screen. [Related pubchem assays: 1850, 1864, 1985 ]. In kind it is functional.
The next experiment deals with H4. Put plainly: Luminescence Cell-Based Dose Response HTS to Identify Activators of 5'UTR Stem-Loop Driven Prion Protein mRNA Translation in H4 Neuroglioblastoma Cells. [Related pubchem assays: 1829 (Project Summary), 1814 (Primary HTS)]. In kind it is functional. The following applies: Homo sapiens.
Experiment [4] is described as follows: Luminescence Cell-Based Dose Confirmation to Identify Activators of 5'UTR Stem-Loop Driven Alpha-Synuclein mRNA Translation in H4 Neuroglioblastoma Cells. [Related pubchem assays: 1829 (Project Summary), 1814 (Primary HTS)]. It counts as functional.
Experiment [5] in a line: Luminescence Cell-Based Dose Response to Identify Activators of 5'UTR Stem-Loop Driven Prion Protein mRNA Translation in H4-C Neuroglioblastoma Cells. [Related pubchem assays: 1829 (Project Summary), 1814 (Primary HTS)]. In kind it is functional.
The nature of experiment [6]: Luminescence Cell-Based Dose Response to Identify Activators of Luciferase Translation or Activity in H4-C Neuroglioblastoma Cells. [Related pubchem assays: 1829 (Project Summary), 1814 (Primary HTS)]. In kind it is functional.
Experiment [7] has as its target T3, Carboxy-terminal domain RNA polymerase II polypeptide A small phosphatase 1 (Homo sapiens, UniProt Q9GZU7).
T3 sequence (Q9GZU7 whole entry): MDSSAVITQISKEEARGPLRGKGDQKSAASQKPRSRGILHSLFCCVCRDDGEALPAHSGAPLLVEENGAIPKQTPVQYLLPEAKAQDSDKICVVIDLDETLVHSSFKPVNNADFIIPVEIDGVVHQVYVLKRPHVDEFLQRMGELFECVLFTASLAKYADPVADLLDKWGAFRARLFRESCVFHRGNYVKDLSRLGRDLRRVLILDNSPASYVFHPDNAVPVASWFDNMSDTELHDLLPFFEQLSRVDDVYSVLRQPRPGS
Description: CTDSP1 inhibitors, concentration-response, biochemical, absorbance readout, ultra-high-throughput screen actives (AID 540297). In kind it is functional.

Experiment [8] can be described thus: Luminescence Cell-Based Dose Response HTS to Identify Activators of Luciferase Translation or Activity in H4 […] Cells. [Related pubchem assays: 1829 (Project Summary), 1814 (Primary HTS)]. It counts as functional.
Experiment [9] in a line: Luminescence Cell-Based Dose Confirmation HTS to Identify Activators of 5'UTR Stem-Loop Driven Alpha-Synuclein mRNA Translation in H4 Neuroglioblastoma Cells. [Related pubchem assays: 1829 (Project Summary), 1814 (Primary HTS)]. It counts as functional.
The next experiment addresses Troponin, cardiac muscle (Homo sapiens, UniProt P19429+P45379+P63316). Description: Fluorescence-based biochemical high throughput dose response assay for activators of the calcium sensitivity of cardiac Regulated Thin Filaments (RTF). [Related pubchem assays (depositor defined):AID493008, AID493018, AID504382, AID504383]. In kind it is protein-complex assay.
Experiment [10] is described as follows: viability loss in HeLa cells – cytotoxicity control for MgcRacGAP inhibitor project, dose response (AID 624300). In kind it is functional.
Experiment [11] deals with T4, Rac GTPase-activating protein 1 (Homo sapiens, UniProt Q9H0H5).
T4 sequence (Q9H0H5 whole entry): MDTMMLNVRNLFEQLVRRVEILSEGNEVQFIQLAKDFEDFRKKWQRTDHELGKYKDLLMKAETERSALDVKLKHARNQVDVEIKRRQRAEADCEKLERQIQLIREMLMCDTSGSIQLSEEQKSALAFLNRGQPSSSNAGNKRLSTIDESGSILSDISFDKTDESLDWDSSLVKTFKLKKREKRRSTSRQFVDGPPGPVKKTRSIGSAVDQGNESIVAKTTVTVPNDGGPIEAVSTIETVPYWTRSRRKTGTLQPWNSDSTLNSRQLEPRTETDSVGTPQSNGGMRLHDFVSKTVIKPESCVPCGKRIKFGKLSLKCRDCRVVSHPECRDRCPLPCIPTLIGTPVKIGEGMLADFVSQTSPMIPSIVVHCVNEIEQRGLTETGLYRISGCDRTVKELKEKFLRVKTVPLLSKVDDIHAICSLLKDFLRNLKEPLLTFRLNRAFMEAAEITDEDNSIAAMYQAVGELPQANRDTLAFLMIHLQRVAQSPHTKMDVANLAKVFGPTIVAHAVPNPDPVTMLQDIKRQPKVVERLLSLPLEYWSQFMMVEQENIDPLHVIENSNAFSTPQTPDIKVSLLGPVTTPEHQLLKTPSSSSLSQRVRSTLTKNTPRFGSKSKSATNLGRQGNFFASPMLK
Put plainly: blockers of MgcRacGAP-driven Rac1 GTP hydrolysis – biochemical, ADP Hunter fluorescence, primary and confirmatory, confirmation (AID 624330). In kind it is functional.

Experiment [12] addresses T5, Cytochrome P450 3A4 (Homo sapiens, UniProt P08684). To be noted: Potency.
Experiment [13] addresses T6, Mannose-6-phosphate isomerase (Homo sapiens, UniProt P34949).
T6 sequence (P34949 whole entry): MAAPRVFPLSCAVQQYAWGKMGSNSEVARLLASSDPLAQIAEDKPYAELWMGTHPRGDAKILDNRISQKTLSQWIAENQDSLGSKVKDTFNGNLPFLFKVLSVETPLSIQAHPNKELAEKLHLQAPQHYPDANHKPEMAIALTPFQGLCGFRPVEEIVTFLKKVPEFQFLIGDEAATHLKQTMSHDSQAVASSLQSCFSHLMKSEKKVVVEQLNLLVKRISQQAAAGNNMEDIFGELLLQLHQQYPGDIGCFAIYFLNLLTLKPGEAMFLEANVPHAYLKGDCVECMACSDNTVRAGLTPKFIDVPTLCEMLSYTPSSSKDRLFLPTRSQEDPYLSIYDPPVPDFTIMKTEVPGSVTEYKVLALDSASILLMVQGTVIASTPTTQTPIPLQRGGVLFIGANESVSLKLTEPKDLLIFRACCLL
Put plainly: phosphomannose isomerase inhibition – biochemical, fluorescence intensity, confirmation (AID 1535).

A further experiment deals with T7, Phosphomannomutase 2 (Homo sapiens, UniProt O15305).
T7 sequence (O15305 whole entry): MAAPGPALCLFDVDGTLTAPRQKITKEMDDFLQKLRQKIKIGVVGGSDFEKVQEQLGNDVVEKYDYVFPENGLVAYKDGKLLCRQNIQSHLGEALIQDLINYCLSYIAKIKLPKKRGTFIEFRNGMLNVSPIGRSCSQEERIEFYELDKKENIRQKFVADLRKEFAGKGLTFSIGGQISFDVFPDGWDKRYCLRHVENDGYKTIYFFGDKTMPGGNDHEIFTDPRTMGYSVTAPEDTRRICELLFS
Description: Counter screen SAR assay for PMM2 inhibitors via a fluorescence intensity assay. [Related pubchem assays (depositor defined):AID1545, AID1574].

The next experiment relates to HeLa. Put plainly: viability loss in HeLa cells – cell-based, 24 h, cherry-picked samples, cytotoxicity control, dose response (AID 504726).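 Further: potency for cytotoxicity as loss of luminescence signal.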 It counts as functional. The following applies: Homo sapiens.
Another experiment has as its target T8, Cytochrome P450 1A2 (Homo sapiens, UniProt P05177).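 Further: PubChem cytochrome P450 panel assay, CYP1A2 panel member.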
T8 sequence (P05177 whole entry): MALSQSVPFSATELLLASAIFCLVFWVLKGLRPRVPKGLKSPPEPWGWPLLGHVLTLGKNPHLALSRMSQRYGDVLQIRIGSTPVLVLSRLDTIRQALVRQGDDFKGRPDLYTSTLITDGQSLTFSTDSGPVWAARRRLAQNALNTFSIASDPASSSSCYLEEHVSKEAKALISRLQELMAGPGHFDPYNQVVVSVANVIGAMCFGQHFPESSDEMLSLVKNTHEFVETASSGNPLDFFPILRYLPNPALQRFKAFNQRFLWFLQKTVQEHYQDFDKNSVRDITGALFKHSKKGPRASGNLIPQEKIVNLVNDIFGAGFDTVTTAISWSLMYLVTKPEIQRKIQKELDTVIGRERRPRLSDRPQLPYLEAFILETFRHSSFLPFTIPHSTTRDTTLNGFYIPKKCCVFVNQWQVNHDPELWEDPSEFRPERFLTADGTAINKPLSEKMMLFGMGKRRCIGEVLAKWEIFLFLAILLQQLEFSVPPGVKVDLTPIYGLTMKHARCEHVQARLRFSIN

The target of experiment [14] is T5, Cytochrome P450 3A4.
The target of a further experiment is Large T antigen (Simian virus 40, UniProt P03070). It counts as functional, Betapolyomavirus macacae.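 Further: Confirmatory-stage PubChem screen for compounds that inhibit SV40 T antigen.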
Sequence of Large T antigen (P03070 whole entry): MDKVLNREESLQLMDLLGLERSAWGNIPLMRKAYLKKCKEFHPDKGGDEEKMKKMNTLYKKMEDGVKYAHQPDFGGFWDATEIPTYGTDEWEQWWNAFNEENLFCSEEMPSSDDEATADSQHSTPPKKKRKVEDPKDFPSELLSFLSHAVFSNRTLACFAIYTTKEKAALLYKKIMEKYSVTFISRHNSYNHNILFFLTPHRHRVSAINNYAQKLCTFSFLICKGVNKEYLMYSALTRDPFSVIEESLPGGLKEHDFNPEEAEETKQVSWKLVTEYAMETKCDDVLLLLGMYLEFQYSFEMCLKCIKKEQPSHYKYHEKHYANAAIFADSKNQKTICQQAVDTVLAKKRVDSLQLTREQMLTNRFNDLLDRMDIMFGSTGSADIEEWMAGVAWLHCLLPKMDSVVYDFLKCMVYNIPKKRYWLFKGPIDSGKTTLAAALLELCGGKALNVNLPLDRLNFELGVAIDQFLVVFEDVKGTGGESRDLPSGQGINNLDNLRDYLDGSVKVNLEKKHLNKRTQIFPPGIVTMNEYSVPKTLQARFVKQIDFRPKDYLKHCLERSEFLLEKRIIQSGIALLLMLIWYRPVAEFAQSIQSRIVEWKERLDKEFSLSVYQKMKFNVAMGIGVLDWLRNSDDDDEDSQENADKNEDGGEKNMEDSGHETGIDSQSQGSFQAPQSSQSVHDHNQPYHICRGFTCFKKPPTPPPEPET
The target in the next experiment is Cytochrome P450 2D6 (Homo sapiens, UniProt P10635).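 Further: CYP2D6 member of a cytochrome P450 panel assay.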
Sequence of Cytochrome P450 2D6 (P10635 whole entry): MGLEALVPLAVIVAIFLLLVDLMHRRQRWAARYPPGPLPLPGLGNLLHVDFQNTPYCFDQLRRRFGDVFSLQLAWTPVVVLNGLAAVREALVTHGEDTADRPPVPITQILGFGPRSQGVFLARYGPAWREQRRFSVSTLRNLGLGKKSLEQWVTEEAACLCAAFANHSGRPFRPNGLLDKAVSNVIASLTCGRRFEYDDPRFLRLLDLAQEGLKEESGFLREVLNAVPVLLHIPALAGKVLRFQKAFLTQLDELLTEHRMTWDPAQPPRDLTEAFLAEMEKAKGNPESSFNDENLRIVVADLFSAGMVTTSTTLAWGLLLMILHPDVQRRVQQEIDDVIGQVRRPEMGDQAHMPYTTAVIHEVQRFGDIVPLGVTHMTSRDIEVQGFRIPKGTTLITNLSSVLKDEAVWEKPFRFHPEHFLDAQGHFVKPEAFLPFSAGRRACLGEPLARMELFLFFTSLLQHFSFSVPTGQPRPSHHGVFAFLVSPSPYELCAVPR

Active and inactive are the calls of the source.

T5 sequence (P08684 whole entry): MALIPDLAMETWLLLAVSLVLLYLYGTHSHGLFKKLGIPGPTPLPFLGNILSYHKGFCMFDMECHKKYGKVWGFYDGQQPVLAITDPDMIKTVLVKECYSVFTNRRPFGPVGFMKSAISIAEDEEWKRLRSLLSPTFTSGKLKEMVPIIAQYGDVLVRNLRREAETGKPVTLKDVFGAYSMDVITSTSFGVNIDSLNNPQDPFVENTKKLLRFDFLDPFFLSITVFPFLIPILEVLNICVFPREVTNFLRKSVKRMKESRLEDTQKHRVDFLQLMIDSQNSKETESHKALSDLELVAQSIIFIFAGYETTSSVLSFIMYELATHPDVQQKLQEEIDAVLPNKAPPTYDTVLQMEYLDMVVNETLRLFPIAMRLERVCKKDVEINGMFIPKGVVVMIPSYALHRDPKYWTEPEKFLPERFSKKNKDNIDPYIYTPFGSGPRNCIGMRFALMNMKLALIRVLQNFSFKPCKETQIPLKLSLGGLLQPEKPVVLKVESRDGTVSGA
T1 sequence (Q92731 whole entry): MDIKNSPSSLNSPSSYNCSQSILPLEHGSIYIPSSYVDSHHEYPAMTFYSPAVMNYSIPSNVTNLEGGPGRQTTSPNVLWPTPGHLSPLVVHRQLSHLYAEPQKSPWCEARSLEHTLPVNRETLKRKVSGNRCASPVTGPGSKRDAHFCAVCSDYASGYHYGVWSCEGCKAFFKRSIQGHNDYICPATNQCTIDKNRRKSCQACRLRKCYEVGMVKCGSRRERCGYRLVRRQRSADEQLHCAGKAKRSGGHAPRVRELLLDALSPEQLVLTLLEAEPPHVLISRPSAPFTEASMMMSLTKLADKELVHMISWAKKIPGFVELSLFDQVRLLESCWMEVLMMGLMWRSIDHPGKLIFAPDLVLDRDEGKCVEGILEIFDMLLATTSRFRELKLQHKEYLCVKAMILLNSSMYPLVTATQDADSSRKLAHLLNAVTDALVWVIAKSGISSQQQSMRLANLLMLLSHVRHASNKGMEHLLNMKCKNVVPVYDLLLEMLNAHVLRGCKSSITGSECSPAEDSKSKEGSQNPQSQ

The IC50 is the concentration that inhibits the measured activity by half. For `CCOc1ccc(C(=O)OCC(=O)NCc2ccco2)cc1OCC`, the IC50 is 0.113 µM (not active) against Estrogen receptor beta [1], > 50 µM (not active) on Estrogen receptor beta [2] and > 100 µM (inactive) on Bcl-2-like protein 10.

As usually defined, the EC50 is the concentration at which the effect is half-maximal. Regarding `CCCCCC(=O)NNC(=S)NC(C)=O`, the 50% effective concentration (EC50) in experiment [3] is > 50 µM (active).

Take `COc1ccc(NC(=O)c2cnn3c(C(F)(F)F)cc(-c4ccco4)nc23)cc1OC`: the IC50 on Bcl-2-like protein 10 is 66.8 µM (inactive).

For the molecule `COc1ccccc1-c1nn2c(-c3ccco3)nnc2s1`, the EC50 is 14.9 µM (active) with H4; 0.613 µM (active) in experiment [4]; 1.27 µM (active) in [5]; 0.431 µM (active) in [6]; < 0.1 µM (active) in experiment [8]; 0.129 µM (active) in [9]. In addition, the IC50 in experiment [7] was 12 µM (active).

For the molecule `CCc1ccc(NC2=NCCCS2)cc1`, the EC50 in [3] is > 50 µM (active).

As for `COc1ccccc1NC(=O)COC(=O)c1cnc(C)cn1`, the EC50 on Troponin, cardiac muscle was > 71.5 µM (inactive).

Consider `O=C(NCc1nnc(SCC(=O)N2CCCCCC2)o1)c1ccco1`, for which the EC50 on Troponin, cardiac muscle is > 71.5 µM (inactive).

`CNS(=O)(=O)c1ccc(N/C=C2/C(=O)NC(=O)N(c3ccccc3)C2=O)cc1`: the EC50 on Troponin, cardiac muscle is > 71.5 µM (inactive).

The term CC50 denotes the concentration giving 50% cytotoxicity. Consider `CN(C)c1ccc(NC(=O)c2sc(SCC(=O)Nc3nccs3)nc2N)cc1`, for which the EC50 in experiment [4] was 0.236 µM (active); in experiment [5], 1.28 µM (active); in experiment [6], 0.575 µM (active); in [8], < 0.1 µM (active). Further, in [10], the CC50 was 100 µM (active). Moreover, the IC50 in experiment [11] is 107 µM (active).

With `COCCN1CCn2c(nc3cc(NC(=O)NC4CCCCC4)ccc32)C1`, at Bcl-2-like protein 10, the IC50 is > 12.5 µM (inactive).

Regarding `O=C(NCc1ccccc1)c1cccc(COc2ccc(Cl)cc2)c1`, the EC50 in the experiment on H4 was > 120 µM (not active); in [4], 0.261 µM (active); in [5] it was > 12 µM (not active); in experiment [6], > 12 µM (not active); in experiment [8], < 0.1 µM (active).

For the molecule `Cc1ccc(OCc2nnc(NC(=O)c3cccnc3)s2)cc1`, the EC50 in [3] is > 50 µM (active).

In general, AC50 refers to the midpoint of the concentration-response curve, whichever way the signal moves. Consider `CC(C)C1=CC2=CCC3[C@@](C)(CCC[C@@]3(C)C(=O)O)C2CC1` (stereo not given in full), for which the AC50 on Cytochrome P450 3A4 [12] is 39.8 µM (inconclusive).

In the case of `Cc1cc2n(n1)SC(Nc1ccc(F)cc1)N2` (stereo not given), the IC50 in experiment [13] is > 50 µM (inactive); on Phosphomannomutase 2, > 100 µM (inactive).

`CCN(Cc1ccccc1)S(=O)(=O)c1cc2nc(O)c(O)nc2cc1C`: the AC50 in the experiment with HeLa is > 350 µM (inactive).

As for `CC(=O)NC(=NOCc1ccc(Br)cc1)c1nonc1NC(C)=O`, the AC50 in the experiment on HeLa is > 350 µM (inactive).

Take `CS(=O)(=O)c1ccc2nc(-n3sc4ccccc4c3=O)sc2c1`: the IC50 is > 50 µM (inactive) in experiment [13] and > 100 µM (inactive) at Phosphomannomutase 2.

With `Cc1cnc(/N=c2\ssnc2Cl)cn1`, in experiment [13], the IC50 was > 100 µM (inactive).

In the case of `CC(C)[C@H](NC(=O)c1ccccc1F)C(=O)NC1CCCCCCC1`, the AC50 in the experiment on HeLa was 135 µM (active).

On to `CC(C)N(C(S)=Nc1cccnc1)c1ccccc1`, for which, in the experiment on HeLa, the AC50 was > 350 µM (inactive).

For the molecule `O=c1c(O)c(-c2ccccc2)oc2cc(O)ccc12` [3,7-DIHYDROXYFLAVONE], at Cytochrome P450 3A4 [12], the AC50 was 39.8 µM (inconclusive).

For the molecule `CC(=O)NCCc1c[nH]c2ccc(O)cc12` [ACETYLSEROTONIN], the concentration at half-maximal activity (AC50) on Cytochrome P450 1A2 was 15.8 µM (inconclusive); on Cytochrome P450 3A4 [14] it was 7.94 µM (inconclusive); at Cytochrome P450 3A4 [12] it was 25.1 µM (inconclusive); at Cytochrome P450 2D6, 15.8 µM (inconclusive). Besides, the half-inhibitory concentration (IC50) at Large T antigen was 21.7 µM (active).
